From ChEMBL document CHEMBL4229500, “Iodine-mediated cyclization of cannabigerol (CBG) expands the cannabinoid biological and chemical space” (Bioorg Med Chem, 2018)

Experiments:
Type in all cases: cell-based
[1] = target: T1, Transient receptor potential cation channel, subfamily V, member 3 (Rattus norvegicus, UniProt E9PU00); experiment: Agonist activity at […] expressed in HEK293 cells assessed as increase in intracellular calcium level by Fluo-4-AM dye based fluorescence assay
T1 sequence (E9PU00 whole entry): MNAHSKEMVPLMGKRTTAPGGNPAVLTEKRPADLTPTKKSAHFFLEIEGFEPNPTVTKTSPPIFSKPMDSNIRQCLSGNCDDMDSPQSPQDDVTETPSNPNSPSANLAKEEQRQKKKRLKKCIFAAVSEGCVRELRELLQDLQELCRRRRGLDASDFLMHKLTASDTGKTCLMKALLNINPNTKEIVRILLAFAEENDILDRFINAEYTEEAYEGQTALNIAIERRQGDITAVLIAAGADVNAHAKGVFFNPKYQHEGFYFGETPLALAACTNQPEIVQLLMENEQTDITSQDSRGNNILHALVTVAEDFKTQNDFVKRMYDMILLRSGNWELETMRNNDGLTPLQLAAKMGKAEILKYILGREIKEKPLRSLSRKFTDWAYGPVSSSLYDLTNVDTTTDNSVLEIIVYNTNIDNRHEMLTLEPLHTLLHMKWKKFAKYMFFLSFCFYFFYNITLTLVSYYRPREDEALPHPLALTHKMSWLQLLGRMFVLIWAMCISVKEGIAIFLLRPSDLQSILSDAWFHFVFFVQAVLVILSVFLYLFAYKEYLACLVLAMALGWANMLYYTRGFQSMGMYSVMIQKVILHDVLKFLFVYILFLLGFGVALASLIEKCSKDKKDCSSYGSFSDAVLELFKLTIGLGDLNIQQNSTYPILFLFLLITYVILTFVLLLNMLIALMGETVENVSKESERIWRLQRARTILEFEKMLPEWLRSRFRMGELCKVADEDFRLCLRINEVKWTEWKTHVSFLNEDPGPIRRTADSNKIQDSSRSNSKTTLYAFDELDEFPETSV

[2] = target: T1, Transient receptor potential cation channel, subfamily V, member 3; experiment: Antagonist activity at […] expressed in HEK293 cells assessed as inhibition of thymol-induced increase in intracellular calcium level pretreated for 5 mins followed by thymol addition by Fluo-4-AM dye based fluorescence assay
[3] = target: T2, Transient receptor potential cation channel subfamily V member 4 (Rattus norvegicus, UniProt Q9ERZ8); experiment: Agonist activity at rat TRPV4 expressed in HEK293 cells assessed as increase in intracellular calcium level by Fluo-4-AM dye based fluorescence assay
T2 sequence (Q9ERZ8 whole entry): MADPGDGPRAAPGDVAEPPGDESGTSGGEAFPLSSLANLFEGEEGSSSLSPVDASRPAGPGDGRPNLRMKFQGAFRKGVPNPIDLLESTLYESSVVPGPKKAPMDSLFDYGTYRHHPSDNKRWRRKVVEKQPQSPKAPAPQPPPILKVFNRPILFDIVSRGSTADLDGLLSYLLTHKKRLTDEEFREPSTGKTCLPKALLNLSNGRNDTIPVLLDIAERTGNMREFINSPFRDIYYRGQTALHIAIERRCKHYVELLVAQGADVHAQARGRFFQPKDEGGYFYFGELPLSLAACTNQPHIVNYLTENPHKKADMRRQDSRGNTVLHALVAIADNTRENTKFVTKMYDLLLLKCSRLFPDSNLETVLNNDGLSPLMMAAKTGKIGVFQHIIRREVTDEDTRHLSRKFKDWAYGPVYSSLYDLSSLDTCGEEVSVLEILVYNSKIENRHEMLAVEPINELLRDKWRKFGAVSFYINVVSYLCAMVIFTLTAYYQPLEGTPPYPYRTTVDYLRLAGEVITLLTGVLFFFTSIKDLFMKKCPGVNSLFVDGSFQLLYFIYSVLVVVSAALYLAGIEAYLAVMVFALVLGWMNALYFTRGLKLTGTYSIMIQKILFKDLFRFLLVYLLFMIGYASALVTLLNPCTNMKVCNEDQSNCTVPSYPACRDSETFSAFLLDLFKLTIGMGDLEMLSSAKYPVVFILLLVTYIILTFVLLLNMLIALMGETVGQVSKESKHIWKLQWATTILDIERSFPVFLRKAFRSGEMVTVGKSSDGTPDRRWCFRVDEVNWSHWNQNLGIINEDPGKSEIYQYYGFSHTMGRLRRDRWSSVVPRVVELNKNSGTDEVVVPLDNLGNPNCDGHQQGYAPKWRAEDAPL

[4] = target: T3, Transient receptor potential cation channel subfamily V member 1 (Homo sapiens, UniProt Q8NER1); experiment: Antagonist activity at human TRPV1 expressed in HEK293 cells assessed as inhibition of capsaicin-induced increase in intracellular calcium level pretreated for 5 mins followed by capsaicin addition by Fluo-4-AM dye based fluorescence assay
T3 sequence (Q8NER1 whole entry): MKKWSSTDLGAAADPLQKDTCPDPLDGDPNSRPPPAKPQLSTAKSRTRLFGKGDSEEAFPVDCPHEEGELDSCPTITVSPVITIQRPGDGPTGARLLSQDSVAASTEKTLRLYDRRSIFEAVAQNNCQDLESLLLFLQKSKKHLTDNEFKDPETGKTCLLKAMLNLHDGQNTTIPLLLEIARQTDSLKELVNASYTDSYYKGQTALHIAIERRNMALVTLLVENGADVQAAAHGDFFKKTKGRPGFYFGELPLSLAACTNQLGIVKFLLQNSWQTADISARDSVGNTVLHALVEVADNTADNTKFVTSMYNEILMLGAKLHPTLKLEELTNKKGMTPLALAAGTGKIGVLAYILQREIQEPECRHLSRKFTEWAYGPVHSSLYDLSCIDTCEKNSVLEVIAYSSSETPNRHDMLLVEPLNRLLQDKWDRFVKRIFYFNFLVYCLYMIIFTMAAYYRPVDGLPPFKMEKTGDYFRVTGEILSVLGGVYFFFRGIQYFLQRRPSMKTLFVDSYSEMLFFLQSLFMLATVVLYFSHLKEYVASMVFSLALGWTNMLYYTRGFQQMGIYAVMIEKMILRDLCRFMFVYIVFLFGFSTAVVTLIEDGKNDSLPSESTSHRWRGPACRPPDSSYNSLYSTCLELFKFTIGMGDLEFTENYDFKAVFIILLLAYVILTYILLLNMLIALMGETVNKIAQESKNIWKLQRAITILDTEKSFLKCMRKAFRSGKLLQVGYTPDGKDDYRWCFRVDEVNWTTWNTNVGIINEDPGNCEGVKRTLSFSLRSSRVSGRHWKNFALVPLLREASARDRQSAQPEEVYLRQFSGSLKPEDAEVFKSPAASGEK

[5] = target: T4, Transient receptor potential cation channel subfamily V member 2 (Rattus norvegicus, UniProt Q9WUD2); experiment: Agonist activity at rat TRPV2 expressed in HEK293 cells assessed as increase in intracellular calcium level by Fluo-4-AM dye based fluorescence assay
T4 sequence (Q9WUD2 whole entry): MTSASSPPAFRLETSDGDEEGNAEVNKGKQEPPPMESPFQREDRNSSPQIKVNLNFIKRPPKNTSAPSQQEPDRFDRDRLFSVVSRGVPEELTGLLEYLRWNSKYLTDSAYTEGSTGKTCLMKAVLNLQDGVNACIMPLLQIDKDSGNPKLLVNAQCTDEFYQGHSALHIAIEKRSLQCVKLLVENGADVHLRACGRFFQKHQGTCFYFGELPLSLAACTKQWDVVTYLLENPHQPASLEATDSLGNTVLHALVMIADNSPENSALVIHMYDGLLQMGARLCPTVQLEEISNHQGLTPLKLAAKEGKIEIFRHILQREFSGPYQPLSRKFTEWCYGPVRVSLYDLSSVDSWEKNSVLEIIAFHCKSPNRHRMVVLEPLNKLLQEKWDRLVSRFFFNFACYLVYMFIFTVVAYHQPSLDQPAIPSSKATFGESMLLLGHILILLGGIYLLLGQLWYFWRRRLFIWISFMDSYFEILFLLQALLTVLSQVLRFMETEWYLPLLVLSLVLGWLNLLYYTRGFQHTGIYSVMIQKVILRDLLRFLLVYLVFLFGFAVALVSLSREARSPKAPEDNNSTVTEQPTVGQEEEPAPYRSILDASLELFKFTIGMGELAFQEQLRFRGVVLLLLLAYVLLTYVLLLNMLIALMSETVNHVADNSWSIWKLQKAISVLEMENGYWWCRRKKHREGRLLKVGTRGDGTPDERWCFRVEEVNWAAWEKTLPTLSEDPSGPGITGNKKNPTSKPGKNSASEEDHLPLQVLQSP

[6] = target: T5, Transient receptor potential cation channel, subfamily V, member 3 (Rattus norvegicus) (UniProt E9PU00); experiment: Agonist activity at […] expressed in HEK293 cells assessed as increase in intracellular calcium level by Fluo-4-AM dye based fluorescence assay relative to ionomycin
T5 sequence (whole entry): T1 sequence (E9PU00 whole entry)

[7] = target: T6, Transient receptor potential cation channel subfamily A member 1 (Rattus norvegicus, UniProt Q6RI86); experiment: Agonist activity at rat TRPA1 expressed in HEK293 cells assessed as increase in intracellular calcium level by fluo-4-AM dye based fluorescence assay
T6 sequence (Q6RI86 whole entry): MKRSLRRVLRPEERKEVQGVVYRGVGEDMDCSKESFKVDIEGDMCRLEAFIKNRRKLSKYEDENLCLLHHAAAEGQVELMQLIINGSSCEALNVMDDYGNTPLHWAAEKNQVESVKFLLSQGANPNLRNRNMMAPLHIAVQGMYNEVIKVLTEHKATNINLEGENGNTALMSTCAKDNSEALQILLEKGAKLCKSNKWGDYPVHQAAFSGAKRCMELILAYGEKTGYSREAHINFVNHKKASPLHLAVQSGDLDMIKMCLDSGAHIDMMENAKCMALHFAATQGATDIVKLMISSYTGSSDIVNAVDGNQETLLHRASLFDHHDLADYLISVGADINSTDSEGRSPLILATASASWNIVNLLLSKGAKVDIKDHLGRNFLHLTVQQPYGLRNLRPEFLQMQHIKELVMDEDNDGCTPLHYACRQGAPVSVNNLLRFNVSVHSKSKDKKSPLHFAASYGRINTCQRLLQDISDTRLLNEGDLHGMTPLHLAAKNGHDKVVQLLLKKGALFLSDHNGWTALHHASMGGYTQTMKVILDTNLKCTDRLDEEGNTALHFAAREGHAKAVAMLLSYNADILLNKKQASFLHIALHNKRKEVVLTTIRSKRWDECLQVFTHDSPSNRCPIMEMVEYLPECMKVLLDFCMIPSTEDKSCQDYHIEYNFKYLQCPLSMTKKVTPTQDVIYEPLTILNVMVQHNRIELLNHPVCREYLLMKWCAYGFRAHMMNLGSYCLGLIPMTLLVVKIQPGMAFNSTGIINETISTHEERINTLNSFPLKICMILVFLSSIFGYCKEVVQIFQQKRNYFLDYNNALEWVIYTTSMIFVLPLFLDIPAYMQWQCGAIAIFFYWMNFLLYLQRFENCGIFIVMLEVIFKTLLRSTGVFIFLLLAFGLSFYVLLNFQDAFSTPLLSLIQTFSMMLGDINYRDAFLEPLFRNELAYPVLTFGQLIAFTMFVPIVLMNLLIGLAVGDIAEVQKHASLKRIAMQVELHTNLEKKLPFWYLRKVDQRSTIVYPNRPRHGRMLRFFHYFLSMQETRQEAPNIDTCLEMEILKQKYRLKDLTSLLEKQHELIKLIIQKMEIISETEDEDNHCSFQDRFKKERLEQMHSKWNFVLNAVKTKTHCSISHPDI

[8] = target: T3, Transient receptor potential cation channel subfamily V member 1; experiment: Agonist activity at human TRPV1 expressed in HEK293 cells assessed as increase in intracellular calcium level by Fluo-4-AM dye based fluorescence assay relative to ionomycin
[9] = target: Transient receptor potential cation channel subfamily M member 8 (Rattus norvegicus, UniProt Q8R455); experiment: Antagonist activity at rat TRPM8 expressed in HEK293 cells assessed as inhibition of icilin-induced increase in intracellular calcium level pretreated for 5 mins followed by icilin addition by Fluo-4-AM dye based fluorescence assay
Sequence of Transient receptor potential cation channel subfamily M member 8 (Q8R455 whole entry): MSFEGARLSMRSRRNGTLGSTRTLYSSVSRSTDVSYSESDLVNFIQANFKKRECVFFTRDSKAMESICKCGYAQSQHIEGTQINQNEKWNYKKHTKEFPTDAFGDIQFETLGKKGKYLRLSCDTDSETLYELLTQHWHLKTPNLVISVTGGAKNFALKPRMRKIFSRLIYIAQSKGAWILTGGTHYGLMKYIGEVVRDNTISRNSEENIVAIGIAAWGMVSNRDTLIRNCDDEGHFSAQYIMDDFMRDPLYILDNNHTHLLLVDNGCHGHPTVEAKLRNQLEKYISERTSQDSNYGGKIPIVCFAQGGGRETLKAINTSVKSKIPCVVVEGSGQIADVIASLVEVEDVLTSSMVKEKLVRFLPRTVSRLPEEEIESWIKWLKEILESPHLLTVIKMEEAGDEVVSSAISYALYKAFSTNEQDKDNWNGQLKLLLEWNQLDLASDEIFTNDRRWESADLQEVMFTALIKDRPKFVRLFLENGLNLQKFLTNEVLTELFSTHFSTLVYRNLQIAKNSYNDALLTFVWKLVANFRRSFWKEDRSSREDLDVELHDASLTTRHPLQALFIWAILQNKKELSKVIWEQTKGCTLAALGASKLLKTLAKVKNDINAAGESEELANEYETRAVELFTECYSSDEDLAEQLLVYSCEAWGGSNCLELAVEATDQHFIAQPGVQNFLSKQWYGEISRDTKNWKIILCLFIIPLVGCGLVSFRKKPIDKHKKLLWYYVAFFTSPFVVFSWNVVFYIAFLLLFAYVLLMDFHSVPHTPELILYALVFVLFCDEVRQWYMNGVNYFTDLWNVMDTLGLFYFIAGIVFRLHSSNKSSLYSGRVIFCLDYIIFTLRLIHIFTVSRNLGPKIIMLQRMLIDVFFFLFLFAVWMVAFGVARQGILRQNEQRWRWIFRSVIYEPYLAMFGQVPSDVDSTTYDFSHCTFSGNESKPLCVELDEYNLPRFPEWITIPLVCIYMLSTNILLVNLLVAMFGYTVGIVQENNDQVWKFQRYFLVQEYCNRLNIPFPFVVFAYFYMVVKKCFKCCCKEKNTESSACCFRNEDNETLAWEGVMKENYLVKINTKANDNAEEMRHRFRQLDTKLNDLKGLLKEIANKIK

[10] = target: Transient receptor potential cation channel subfamily A member 1 (Rattus norvegicus) (UniProt Q6RI86); experiment: Agonist activity at rat TRPA1 expressed in HEK293 cells assessed as increase in intracellular calcium level by fluo-4-AM dye based fluorescence assay relative to AITC
Sequence of Transient receptor potential cation channel subfamily A member 1 (Rattus norvegicus) (Q6RI86 whole entry): as the sequence (Q6RI86 whole entry) above

[11] = target: T4, Transient receptor potential cation channel subfamily V member 2; experiment: Antagonist activity at rat TRPV2 expressed in HEK293 cells assessed as inhibition of LPC-induced increase in intracellular calcium level pretreated for 5 mins followed by LPC addition by Fluo-4-AM dye based fluorescence assay
[12] = target: T3, Transient receptor potential cation channel subfamily V member 1; experiment: Agonist activity at human TRPV1 expressed in HEK293 cells assessed as increase in intracellular calcium level by Fluo-4-AM dye based fluorescence assay
[13] = target: T7, Transient receptor potential cation channel subfamily V member 2 (Rattus norvegicus) (UniProt Q9WUD2); experiment: Agonist activity at rat TRPV2 expressed in HEK293 cells assessed as increase in intracellular calcium level by Fluo-4-AM dye based fluorescence assay relative to ionomycin
T7 sequence (whole entry): T4 sequence (Q9WUD2 whole entry)

[14] = target: T2, Transient receptor potential cation channel subfamily V member 4; experiment: Antagonist activity at […] expressed in HEK293 cells assessed as inhibition of GSK1016790A-induced increase in intracellular calcium level pretreated for 5 mins followed by GSK1016790A addition by Fluo-4-AM dye based fluorescence assay
[15] = target: Transient receptor potential cation channel subfamily V member 4 (Rattus norvegicus) (UniProt Q9ERZ8); experiment: Agonist activity at rat TRPV4 expressed in HEK293 cells assessed as increase in intracellular calcium level by Fluo-4-AM dye based fluorescence assay relative to ionomycin
Sequence of Transient receptor potential cation channel subfamily V member 4 (Rattus norvegicus) (Q9ERZ8 whole entry): as the sequence (Q9ERZ8 whole entry) above

[16] = target: T6, Transient receptor potential cation channel subfamily A member 1; experiment: Antagonist activity at rat TRPA1 expressed in HEK293 cells assessed as inhibition of AITC-induced increase in intracellular calcium level pretreated for 5 mins followed by AITC addition by fluo-4-AM dye based fluorescence assay

Row | EC50 ([1]; hek293) | EC50 ([3]; read-out: EC50) [µM] | EC50 ([12]; read-out: EC50) [µM] | SMILES | IC50 [2] [µM] | IC50 [4] [µM] | EC50 ([5]; read-out: EC50) [µM] | Efficacy [6] [%] | EC50 [7] [µM] | Efficacy [8] [%] | IC50 [9] [µM] | Efficacy [10] [%] | IC50 [11] [µM] | Efficacy [13] [%] | IC50 [14] [µM] | Efficacy [15] [%] | IC50 [16] [µM] | EC50 ([5]; hek293) | EC50 ([12]; hek293) | EC50 ([1]; read-out: EC50) [µM] | EC50 ([3]; hek293)
1 | Not Active | 3.3 | 1.8 | CCCCCc1cc(O)c2c(c1)O[C@]1(C2)[C@@H](C)CCCC1(C)C | 12.8 | 7.1 | 4.7 | < 10 | 0.49 | 43.9 | > 50 | 108 | 13.7 | 37.7 | 4.3 | 13.9 | 0.45 |  |  |  | 
2 | Not Active | 18 |  | CCCCCc1cc(O)c2c(c1)OC(C)(CCCC(C)(C)c1ccc(C)cc1)CC2 (stereo unspecified) | > 50 | > 50 |  | < 10 | 0.35 | < 10 | > 100 | 120 | 4.5 | < 10 | > 100 | 18 | 0.32 | Not Active | Not Active |  | 
3 | Not Active |  | 4.9 | CCCCCc1cc(O)c2c(c1)O[C@]1(C2)[C@H](C)CCCC1(C)C | > 50 | 37 | 6.4 | < 10 | 1.3 | 32.3 | > 50 | 102 | > 50 | 27.5 | 39.7 | < 10 | 1.7 |  |  |  | Not Active

Row | SMILES | EC50 ([1]; hek293) | EC50 ([3]; read-out: EC50) [µM] | EC50 ([12]; read-out: EC50) [µM] | IC50 [2] [µM] | IC50 [4] [µM] | EC50 ([5]; read-out: EC50) [µM] | Efficacy [6] [%] | EC50 [7] [µM] | Efficacy [8] [%] | IC50 [9] [µM] | Efficacy [10] [%] | IC50 [11] [µM] | Efficacy [13] [%] | IC50 [14] [µM] | Efficacy [15] [%] | IC50 [16] [µM] | EC50 ([5]; hek293) | EC50 ([12]; hek293) | EC50 ([1]; read-out: EC50) [µM] | EC50 ([3]; hek293)
4 | CCCCCc1cc(O)c2c(c1)O[C@@]1(C)CCCC(C)(C)[C@H]1C2 |  |  | 2.6 | 8 | 5.9 | 5.8 | 17.5 | 0.29 | 48.5 | 17.1 | 98.5 | > 100 | 31.7 | 3.9 | < 10 | 0.27 |  |  | 6.7 | Not Active
5 | CCCCCc1cc(O)c2c(c1)O[C@]1(C)CC[C@@H](I)C(C)(C)[C@H]1C2 | Not Active |  |  | > 50 | > 100 |  | < 10 | 2 | < 10 | 7.2 | 90 | 2.3 | < 10 | > 100 | < 10 | 4.8 | Not Active | Not Active |  | Not Active
6 | CCCCCc1cc(O)c2c(c1)O[C@]1(C)CCCC(C)(C)[C@H]1C2 | Not Active |  |  | > 50 | > 100 | 8.4 | < 10 | 0.23 | < 10 | > 100 | 95.2 | > 100 | 41.3 | > 100 | < 10 | 0.26 |  | Not Active |  | Not Active
